In patent publication US5270311A, “[1,2,4]-Triazolo[1,5-a]and pyrazolo[2,3-a][1,3,5]triazine derivatives” (Imperial Chemical Industries PLC, priority 1990, dated 1993):
Like-named read-outs stand apart in the source and are kept apart here.

Legend:
[1] = tested on: vasodilatation response during twitch contraction of skeletal muscle; assay: Anaesthetised cat exercise hyperaemia test; type: in vivo; conditions: Felis catus, iv, 20 min, hind limb contraction at 3 Hz for 20 minutes, read-out: dose producing significant inhibition of vasodilatation during exercise
Experimental: (f) Anaesthetised cat exercise hyperaemia test
This test involves assessment of the effect of a test compound to antagonise the vasodilatation response which occurs during twitch contraction of skeletal muscle. The vasodilation is mediated partly by the release of endogenous adenosine from the contracting skeletal muscle.
Cats (2.4-3.6 kg) are anaesthetised with sodium pentobarbitone (50 mg.kg^-1 ip). The following blood vessels are catheterized: left jugular vein (for infusion of anaesthetic, at approximately […] as a 6 mg.ml^-1 solution in isotonic saline), right external jugular vein (for administration of drugs and test compounds), right common carotid artery (for measurement of systemic arterial blood pressure and pulse rate) and right brachial artery (for withdrawal of blood).
Blood flow to the left hind limb is measured with an electromagnetic flow probe around the left external iliac artery. The whole of the left hind limb is made to contract at 3 Hz for 20 minutes duration by stimulating the sciatic and femoral nerves. Active tension produced by the extensor digitorum longus and peroneous longus muscles is measured isometrically with a force transducer. […] Test compounds are assessed for their ability to reduce the vasodilatation during skeletal muscle contraction. […]

[2] = tested on: actions of adenosine in lowering heart rate and increasing vasodilation (hind-limb perfusion pressure); assay: Anaesthetised dog Test; type: in vivo; conditions: Schild plot, antagonism of vasodilator response to adenosine
Experimental: (e) Anaesthetised dog Test
This test involves the assessment of the effects of a test compound on antagonising the actions of adenosine in lowering heart rate and increasing vasodilation (as measured by a fall in hind-limb perfusion pressure).
Beagles (12-18 kg) are anaesthetised with sodium pentobarbitone (50 mg/kg, iv). […] Both vagi, the right femoral and sciatic nerves are ligated and severed. […] The right leg is tied just below the ankle. Xamoterol (1 mg/kg) is then administered to the animal to stabilise heart rate at a high level and nitrobenzylthioinosine (NBTI, 0.5 mg/kg) to inhibit the uptake of adenosine. The animal is sensitised to adenosine during the equilibration time following NBTI by carrying out a dose response curve (DRC). During this time any blood gas or pH imbalance is corrected. A control DRC is performed followed-d by up to three DRC's after cumulative administration of the test compound (as described in (d) above). […] Similarly, blood gases and pH are maintained within physiological limits throughout the evaluation.
From this plot a KB value is determined for antagonism of heart rate response and vasodilator response to adenosine.

[3] = molecular target: T1, adenosine receptor known as A2; assay: Guinea-pig Aortic Constriction Test; conditions: antagonism of adenosine relaxation of phenylephrine constricted guinea-pig aortic ring; read-out: pA2 (converted)
T1 construct: guinea pig thoracic aorta (from Dunkin Hartley strain, 250-400 g males); from tissue; host or cells: thoracic aortic rings, Dunkin Hartley guinea pig
T1 sequence (P29275 whole entry): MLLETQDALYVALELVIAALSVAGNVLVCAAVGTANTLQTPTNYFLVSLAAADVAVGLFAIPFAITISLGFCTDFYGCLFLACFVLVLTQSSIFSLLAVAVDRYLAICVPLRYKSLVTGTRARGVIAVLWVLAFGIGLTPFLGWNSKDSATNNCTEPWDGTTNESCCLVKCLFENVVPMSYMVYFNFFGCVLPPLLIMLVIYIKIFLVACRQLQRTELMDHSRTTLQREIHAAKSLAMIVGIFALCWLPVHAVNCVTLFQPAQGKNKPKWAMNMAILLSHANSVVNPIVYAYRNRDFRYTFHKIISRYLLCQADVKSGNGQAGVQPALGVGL
Experimental: (b) Guinea-pig Aortic Constriction Test
The aortic ring preparation is obtained as follows: Sections (3-5 mm) of guinea pig thoracic aorta (from Dunkin Hartley strain, 250-400 g males) are mounted in organ baths containing oxygenated Krebs solution (95% O2 : 5% CO2) at 37° C. [The nucleoside transport inhibitor, dipyridamole (10 μM) is present in the Krebs solution]. The isometric tension development is recorded and the tissue placed under a resting tension of 1 g and allowed to equilibrate for 1 hour. The aortic ring preparation is then sensitised to 10^-5 M phenylephrine. Erythro-9-(2-hydroxy-3-nonyl)adenine (EHNA) (10 μM) is added to the preparation and after 10 minutes the tissue is constricted to approximately 50% maximum by adding 3×10^-6 M phenylephrine. Adenosine is next added cumulatively (10^-7 M to 10^-3 M) and the evoked relaxation is measured. After washout for 20 minutes, a 10^5 M solution of the test compound in DMSO (maximum 1% by volume) diluted with Krebs solution is added and left to equilibrate for 30 minutes. Twenty minutes into the equilibration period further EHNA (10 μM) is added to the preparation and 10 minutes later phenylephrine (3×10^-6 M) is introduced to produce constrictive tone again. A repeat dose response curve to adenosine is then carried out followed by washout.
Significant antagonist activity in this assay is indicated by a DR of >2.

A2 Adenosine receptor = molecular target: T2, A2 Adenosine receptor (Rattus norvegicus, UniProt P30543); assay: A2 Adenosine receptor affinity test ([3H]-NECA displacement, PC12 membranes); type: binding
T2 construct: membrane preparations derived from the rat phaeochromocytoma cell line PC 12; endogenous in cells; host or cells: PC 12 (rat phaeochromocytoma; cell line available from the Beatson Institute, Glasgow)
T2 sequence (P30543 whole entry): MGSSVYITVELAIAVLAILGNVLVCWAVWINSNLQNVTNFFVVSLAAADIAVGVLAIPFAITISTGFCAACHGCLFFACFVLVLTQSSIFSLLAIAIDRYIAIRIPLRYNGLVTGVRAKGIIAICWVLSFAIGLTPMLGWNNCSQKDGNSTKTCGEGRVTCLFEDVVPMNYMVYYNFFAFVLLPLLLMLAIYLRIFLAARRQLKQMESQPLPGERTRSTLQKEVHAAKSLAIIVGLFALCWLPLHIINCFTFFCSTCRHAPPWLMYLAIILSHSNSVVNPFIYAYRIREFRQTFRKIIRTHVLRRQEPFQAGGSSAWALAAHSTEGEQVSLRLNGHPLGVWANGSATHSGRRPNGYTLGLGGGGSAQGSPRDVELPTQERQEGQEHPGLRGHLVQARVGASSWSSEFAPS
Experimental: The separated cells are then suspended in hypotonic solution (distilled water), allowed to stand on ice for 30 minutes and are then carefully homogenized using a standard high-speed homogeniser with periodic ice-cooling to obtain a fine suspension. […] A1280). […] After 20 minutes, the reaction is terminated by dilution with ice-cold buffer and transfer onto ice. The material obtained containing the cell membranes is recovered by centrifugation and washed by resuspension in buffer and recentrifugation. The pellet produced is then resuspended in ice-cold buffer using a hand-driven homogenizer. The resultant membrane suspension is frozen and stored under liquid nitrogen until required. […] After incubation, the samples are rapidly filtered over glass-fibre mats and the filter mats are washed to remove non-receptor-bound radioligand. Receptor-bound radioligand entrapped on the filter mats is then determined by liquid scintillation counting. Filtration and washing are carried out using a conventional vacuum filtration cell harvester. The specific binding (defined as the difference between the total binding and the non-specific binding) in the presence of the particular test compound is determined and compared with the control value.

[4] = tested on: adenosine induced decrease in blood pressure; assay: Conscious cat oral modification of Test (d); type: in vivo; conditions: conscious cats, at several times the minimum effective dose
From the text: The above Test (d) may conveniently be modified to allow evaluation of orally administered test compounds by administering the test compound to conscious cats with indwelling arterial and venous catheters and measuring the effect in preventing an adenosine induced decrease in blood pressure.

[5] = molecular target: T3, adenosine receptor known as A1 (Cavia porcellus, UniProt P47745); assay: Guinea-pig Atrial Bradycardic Test; conditions: antagonism of bradycardic effect of 2-chloroadenosine, beating guinea-pig atrial pair; read-out: pA2 (converted)
T3 construct: Atrial pairs are obtained from guinea-pigs (Dunkin Hartley strain, 250-400 g males); from tissue; host or cells: spontaneously beating atrial pairs, Dunkin Hartley guinea pig
T3 sequence (P47745 1-326): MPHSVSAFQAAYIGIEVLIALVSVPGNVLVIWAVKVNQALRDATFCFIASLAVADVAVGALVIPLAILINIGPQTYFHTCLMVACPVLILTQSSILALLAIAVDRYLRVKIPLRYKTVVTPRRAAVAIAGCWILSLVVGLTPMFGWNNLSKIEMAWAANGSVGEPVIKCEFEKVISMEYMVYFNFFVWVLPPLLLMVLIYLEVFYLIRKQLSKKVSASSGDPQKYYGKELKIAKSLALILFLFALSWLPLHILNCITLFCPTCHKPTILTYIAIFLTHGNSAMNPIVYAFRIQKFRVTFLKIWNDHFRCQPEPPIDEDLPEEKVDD
Experimental: (c) Guinea-pig Atrial Bradycardic Test
The atrial pair preparation may be obtained as follows: Atrial pairs are obtained from guinea-pigs (Dunkin Hartley strain, 250-400 g males) and mounted in organ baths containing oxygenated Krebs buffer solution (95% O2; 5% CO2) at 37° C. The spontaneously beating atria are then placed under a resting tension of 1 g and allowed to equilibrate for 50 minutes with continuous overflow. Overflow is then stopped and adenosine deaminase (1 Unit/ml) added to prevent the accumulation of endogenously produced adenosine. After equilibration for 15 minutes, a cumulative dose response curve to the adenosine mimetic, 2-chloroadenosine(10^-8 M to 10^-4 M) is administered to produce a maximal slowing of atrial rate. After washout during 30 minutes, adenosine deaminase is readministered to the bath which is allowed to equilibrate for 15 minutes. A 10^-5 M solution of the test compound in DMSO is then added to the bath which is left to incubate for 30 minutes. Any effect on the beating rate due to the test compound is noted before the dose response curve to 2-chloroadenosine is repeated. Compounds which are adenosine antagonists attenuate the 2-chloroadenosine response.
Test compounds are assessed by comparing dose response curves to 2-chloroadenosine alone with those obtained in the presence of the compound. […]

[6] = tested on: fall in diastolic blood pressure produced by 2-chloroadenosine; assay: Anaesthetised cat blood pressure Test; type: in vivo; conditions: i.v., Schild plot, 2-chloroadenosine 30 mm Hg fall in diastolic blood pressure
Experimental: (d) Anaesthetised cat blood pressure Test This test assesses the ability of a test compound to antagonise the fall in diastolic blood pressure produced by administration of the adenosine mimetic, 2-chloroadenosine. […] The blood gas status and pH are determined, and are maintained within physiological limits, before administration of 2-chloroadenosine. […] A solution of the test compound in a mixture of 50% v/v polyethylene glycol (PEG) 400 and 0.1M sodium hydroxide is then administered i.v. and after 15 minutes the DRC to 2-chloroadenosine is determined. This procedure is repeated twice with blood gases and pH being monitored and maintained within physiological limits between each DRC. […] From this plot a KB value is determined.

| IC50 (A2 Adenosine receptor; displacement of [3H]-NECA, rat PC 12 cell membranes, 30° C., 90 minutes) | SMILES | minimal effective dose [1] | KB [2] | Kb [3] | IC50 (A2 Adenosine receptor) | sign of overt toxicity [4] | Kb [5] | KB [6] |
| --- | --- | --- | --- | --- | --- | --- | --- | --- |
|  | Cn1c(=O)c2[nH]cnc2n(C)c1=O [1,3-dimethylxanthine, reference compound] | 10 mg/kg |  |  |  |  |  |  |
|  | Nc1nc(Oc2ccccc2)nc2nc(-c3ccco3)nn12 [Example 1, 7-amino-2-(2-furyl)-5-phenoxy-[1,2,4]triazolo[1,5-a][1,3,5]triazine] | 0.1 to 1 mg/kg | 30 µg/kg | 39.8 nM | ~10 nM | without any sign of overt toxicity | 631 nM | 30 µg/kg |
| ~3.16 nM | Nc1nc(Oc2ccccc2)nc2cc(-c3ccco3)nn12 [Example 119, 7-amino-2-(2-furyl)-5-phenoxy-pyrazolo[2,3-a][1,3,5]triazine] |  | 1100 µg/kg | 50.1 nM |  |  | 1000 nM | 700 µg/kg |
